Test results published in patent US4611056A, “Benzo[A]phenothiazines and hydro-derivatives” (Merck Frosst Canada, Inc., priority 1985, dated 1986).
≈ marks a conversion by molar mass, not a printed value. Where a name gives a salt, the structure may show the parent alone.

Legend:
[1] = test system: Platelet activating factor (PAF)-induced hyperalgesia in the rat paw; experiment: PAF-Induced Hyperalgesia Assay; assay type: in vivo, rat (female Sprague-Dawley)
Protocol: Female Sprague-Dawley rats, 35-40 g were fasted overnight. Platelet activating factor, PAF, (L-lecithin B-acetyl O-alkyl) 1 μg/0.1 ml was given by subplantar injection in the rat paw. The compounds to be evaluated were homogenized in Aqueous Vehicle (0.9% benzyl alcohol, 0.5% Tween 80 and 0.4% methylcellulose) and administered orally in a volume of 0.1 ml, 30 minutes prior to PAF.
Animals were tested 1, 2, 3 and 4 hours after PAF administration. The vocalization threshold, defined as the pressure (mmHg) needed to evoke a squeak response, was recorded for both the injected and contralateral paw. No animal was subjected to pressure greater than 60 mmHg. Hyperalgesia is defined as a decrease in vocalization threshold as compared to a normal paw. Percent inhibition of hyperalgesia was calculated as the proportion of animals with vocalization thresholds greater than 200% of controls.

[2] = test system: LTB4 formation in rat peritoneal PMN leukocytes; experiment: Rat Peritoneal Polymorphonuclear (PMN) Leukocyte Assay (inhibition of LTB4 formation); assay type: cell-based; conditions: for IC50: Leukocyte, rat peritoneal PMN, 10 μM A-23187, 2 min preincubation at 37° C.
Protocol: Rats under ether anesthesia are injected (i.p.) with 8 ml of a suspension of sodium cascinate (6 grams in ca. 50 ml water). […] The rats are sacrificed (CO2) and the cells from the peritoneal cavity are recovered by lavage with 20 ml of buffer (Eagles MEM containing 30 mM HEPES adjusted to pH 7.4 with NaOH). The cells are pelleted (350×g, 5 min.), resuspended in buffer with vigorous shaking, filtered through lens paper, recentrifuged and finally suspended in buffer at a concentration of 10 cells/ml. A 500 μl aliquot of PMN suspension and test compound are preincubated for 2 minutes at 37° C., followed by the addition of 10 μM A-23187. The suspension is stirred for an additional 4 minutes then bioassayed for LTB4 content by adding an aliquot to a second 500 μl portion of the PMN at 37° C. The LTB4 produced in the first incubation causes aggregation of the second PMN, which is measured as a change in light transmission. […] The percentage inhibition of LTB4 formation is calculated from the ration of transmission change in the sample to the transmission change in the compound-free control.

[3] = test system: duration of dyspnoea in asthmatic rats (egg albumin challenge); experiment: Asthmatic Rat Assay; assay type: in vivo; conditions: for ED50 (Asthmatic Rat Assay): p.o.
asthmatic rat = experiment: certain biological tests, amorphous versus crystalline material; assay type: in vivo
Text: Representative results comparing the two forms of the compound are shown in the accompanying Table IV (where doses are in mg/kg, p.o.).

[4] = NMR study of equilibration of conformational isomers in solution; assay type: physicochemical; conditions: upon dissolution at room temperature (DMF-d7)
Protocol: In particular, the methyl group of the acetyl unit appears as four sharp singlets, of approximately equal intensity, at 1.89, 1.91, 1.99 and 2.28 parts per million (ppm).
In another experiment, a sample of the crystalline compound was dissolved in DMF-d7, pre-cooled to -50° C., and the NMR spectrum taken quickly at -50° C. […] As the sample was warmed, these two signals coalesced to a singlet at about 30° C. (1.91 ppm); at about 80° C., a second singlet appeared (2.04 ppm), and at 170° C., these two singlets began to coalesce.
In another NMR study of the compound, five samples were dissolved in DMF-d7 at 25° C., and then stored at -78° C., after being held for 0, 5, 15, 30 and 60 minutes at 25° C.
As a result of the x-ray and NMR studies, it is concluded that there is a single conformational isomer of compound XVIII present in the crystalline form, and that this isomer equilibrated, upon dissolution at room temperature, over a period of approximately one hour, to a mixture of at least four observable conformational isomers which may possibly be represented as follows: [drawing 50]

[5] = Rattus norvegicus, po, 5 mg/kg p.o., Table III, read-out: Asth. Rat % Inhibition
[6] = 0.5 mg/kg p.o., vehicle 0.4% Tween 80/0.5% Methocel
[7] = 1.5 mg/kg p.o., vehicle 0.4% Tween 80/0.5% Methocel
[8] = 2 mg/kg p.o., vehicle 0.4% Tween 80/0.5% Methocel
[9] = vehicle 0.4% Tween 80/0.5% Methocel
[10] = Rattus norvegicus, po, 1.5 mg/kg p.o., Table III, read-out: Asth. Rat % Inhibition

CC(=O)Oc1cc2c(c3ccccc13)Nc1ccccc1S2 [aromatic, H, Ac, S, 5-acetoxy-12H-benzo[a]phenothiazine]
ED50 ([1]; Rattus norvegicus, Platelet, po): 0.145 mg/kg | IC50 [2]: 25 to 50 µg/mL (≈ 81.3 to 163 µM) | ED50 ([3]; Rattus norvegicus, po, Table III, read-out: Asth. Rat ED50): 4 mg/kg

CC(=O)Oc1cc2c(c3ccccc13)N(C(C)=O)c1ccccc1S2 [aromatic, Ac, Ac, S, 5-Acetoxy-12-acetyl-12H-benzo[a]phenothiazine]
inhibition in vivo at 5 mg/kg [3, 5]: 47%

COc1cc2c(c3ccccc13)N(C)c1ccccc1S2 [aromatic, Me, Me, S, 5-methoxy-12-methyl-12H-benzo[a]phenothiazine]
PAF Induced Hyperalgesia % Inhibition ([1]; 1 mg/kg p.o.): 40% | PAF Induced Hyperalgesia % Inhibition ([1]; 3 mg/kg p.o.): 80% | IC50 [2]: 5000 µg/mL (≈ 17000 µM)

CC(=O)OC(C)OC(=O)N1c2ccccc2Sc2cc(O)c3ccccc3c21 (centres unmarked) [Compound XVIII, Amorphous (4 Conformers), 5-hydroxy-12-(1-acetoxyethoxycarbonyl)-12H-benzo[a]phenothiazine]
biological activity over the crystalline material (asthmatic rat): advantageous biological activity over the crystalline material | % Inhibition (Asthmatic Rat Assay) [3, 6]: 48% | % Inhibition (Asthmatic Rat Assay) ([3]; 0.5 mg/kg p.o., vehicle 1% Methocel): 36% | % Inhibition (Asthmatic Rat Assay) [3, 7]: 52% | % Inhibition (Asthmatic Rat Assay) ([3]; 1.5 mg/kg p.o., vehicle 1% Methocel): 59% | % Inhibition (Asthmatic Rat Assay) [3, 8]: 57% | ED50 (Asthmatic Rat Assay) [3, 9]: 1.0 mg/kg | ED50 (Asthmatic Rat Assay) ([3]; vehicle 1% Methocel): 1.0 mg/kg

CC(=O)Oc1cc2c(c3ccccc13)N(C)c1ccccc1S2 [aromatic, Me, Ac, S, 5-acetoxy-12-methyl-12H-benzo[a]phenothiazine]
PAF Induced Hyperalgesia % Inhibition ([1]; 1 mg/kg p.o.): 30-60% | IC50 [2]: 50 µg/mL (≈ 156 µM)

COc1cc2c(c3ccccc13)N(C(C)=O)c1ccccc1S2 [aromatic, Ac, Me, S, 12-Acetyl-5-methoxy-12H-benzo[a]phenothiazine]
IC50 [2]: 5000 µg/mL (≈ 15600 µM)

CC(=O)OC(C)OC(=O)N1c2ccccc2Sc2cc(O)c3ccccc3c21 (centres unmarked) [Compound XVIII, Crystalline (1 Conformer)] [5-hydroxy-12-(1-acetoxyethoxycarbonyl)-12H-benzo[a]phenothiazine]
period of equilibration of the single conformational isomer to a mixture of at least four conformational isomers [4]: approximately one hour | % Inhibition (Asthmatic Rat Assay) [3, 6]: 19% | % Inhibition (Asthmatic Rat Assay) [3, 7]: 49% | % Inhibition (Asthmatic Rat Assay) [3, 8]: 61% | % Inhibition (Asthmatic Rat Assay) ([3]; 2 mg/kg p.o., vehicle 1% Methocel): 28% | % Inhibition (Asthmatic Rat Assay) ([3]; 5 mg/kg p.o., vehicle 0.4% Tween 80/0.5% Methocel): 81% | ED50 (Asthmatic Rat Assay) [3, 9]: 1.5 mg/kg

CC(=O)Oc1cc2c(c3ccccc13)Nc1ccccc1O2 [aromatic, H, Ac, O, 5-Acetoxy-12H-benzo[a]phenoxazine]
inhibition in vivo at 5 mg/kg [3, 5]: 44%

Oc1cc2c(c3ccccc13)Nc1ccccc1S2 [aromatic, H, H, S, 5-hydroxy-12H-benzo[a]phenothiazine]
IC50 [2]: 20 to 100 µg/mL (≈ 75.4 to 377 µM) | inhibition in vivo at 1.5 mg/kg [3, 10]: 54%

CC(=O)N1c2ccccc2Sc2cc(O)c3ccccc3c21 [aromatic, Ac, H, S, 12-acetyl-5-hydroxy-12H-benzo[a]phenothiazine]
IC50 [2]: 1000 to 5000 µg/mL (≈ 3250 to 16300 µM)

CC(C)(C)C(=O)Oc1cc2c(c3ccccc13)Nc1ccccc1S2 [aromatic, H, COC(CH3)3, S, 5-Trimethylacetoxy-12H-benzo[a]phenothiazine]
inhibition in vivo at 5 mg/kg [3, 5]: 54%

O=S1(=O)c2ccccc2Nc2c1cc(O)c1ccccc21 [aromatic, H, H, SO2, 5-Hydroxy-12H-benzo[a]phenothiazine-7,7-dioxide]
inhibition in vivo at 5 mg/kg [3, 5]: 67%

NCC(=O)Oc1cc2c(c3ccccc13)Nc1ccccc1S2 [aromatic, H, COCH2 NH2 .HCl, S, 5-aminoacetoxy-12H-benzo[a]phenothiazine-hydrochloride salt]
inhibition in vivo at 1.5 mg/kg [3, 10]: 21% | inhibition in vivo at 3 mg/kg ([3]; Rattus norvegicus, po, 3 mg/kg p.o., Table III, read-out: Asth. Rat % Inhibition): 44%

O=C(Oc1cc2c(c3ccccc13)Nc1ccccc1S2)c1ccccc1 [aromatic, H, COPh, S, 5-Benzoyloxy-12H-benzo[a]phenothiazine]
inhibition in vivo at 5 mg/kg [3, 5]: 18%

CC(=O)Oc1cc2c(c3ccccc13)Nc1ccccc1S2(=O)=O [aromatic, H, Ac, SO2, 5-Acetoxy-12H-benzo[a]phenothiazine-7,7-dioxide]
inhibition in vivo at 5 mg/kg [3, 5]: 42%

CCOP(=O)(OCC)Oc1cc2c(c3ccccc13)Nc1ccccc1S2 [aromatic, H, PO(OEt)2, S, Diethyl 12H-benzo[a]phenothiazin-5-yl phosphate]
PMN IC50 [2]: 200 to 1000 µg/mL

CC(=O)OC(C)OC(=O)N1c2ccccc2Sc2cc(O)c3ccccc3c21 (centres unmarked) [aromatic, drawing 52, H, S, 5-hydroxy-12-(1-acetoxyethoxycarbonyl)-12H-benzo[a]phenothiazine]
PAF Induced Hyperalgesia % Inhibition ([1]; 3 mg/kg p.o.): 60% | inhibition in vivo at 1.5 mg/kg [3, 10]: 49%
